In data set [1] the test system is HeLa (cervix epithelioid carcinoma cells). As to the kind of experiment: MTT antiproliferative assay, HeLa. The format is cell-based, human. The conditions noted are these: for IC50: Homo sapiens, HeLa. The method, then: (§1) The cell proliferation inhibitory activity of frentizole and the synthesized analogs 2–10 against representative human cancer cell lines was assayed using the MTT method (Table 1). […] For those compounds inhibiting cell proliferation by more than 40% with respect to the untreated controls at the threshold concentration, the IC50 values were calculated by measuring the proliferation inhibition in a range of concentrations from 100 to 0.001 μM and adjusting the resulting curves to sigmoidal dose–response curves. The selected cell lines were HeLa (cervix epithelioid carcinoma cells), one of the most frequent kinds of cancer, with good sensitivity against antimitotic agents, and the glioblastoma cell lines U87MG and A172. To study the selectivity of the compounds toward cancer cells versus nontumor cells, the compounds were also evaluated against the nontumorigenic cell line HEK-293 (human embryonic kidney cells) and the murine macrophage cell line J774. Sulfonamide ABT-751, as a representative of the colchicine-site ligands, and the first-line drug for the treatment of glioblastoma multiforme temozolomide (TMZ) were used as reference compounds.
(§2) The cell lines were from ATTC (Manassas, VA, USA). HeLa (human cervix epithelioid carcinoma), U87 MG (human glioblastoma), A172 (human glioblastoma), and HEK-293 (human embryonic kidney) were grown in Dulbecco’s modified Eagle’s medium (DMEM, Gibco, Waltham, MA, USA), supplemented with 10% (v/v) heat-inactivated fetal bovine serum (HIFBS, Sigma-Aldrich, St. Louis, MO, USA), 2 mM L-glutamine, 100 μg/mL streptomycin, and 100 units/mL penicillin (Gibco, Waltham, MA, USA) at 37 °C in humidified 95% air and 5% CO2. The cells were periodically tested for Mycoplasma infection using MycoAlert kit (Lonza, Norwest, Australia), and only mycoplasma-free cells were employed in the experiments.
(§3) The effect of the compounds on the proliferation of human tumor cell lines was determined as previously described using the MTT reagent 3-[4,5-dimethylthiazol-2-yl]-2,5-diphenyltetrazolium bromide, MTT Thiazolyl Blue Tetrazolium Bromide, Sigma-Aldrich, St. Louis, MO, USA) dissolved in PBS at 5 mg/mL, according to the manufacturer’s instructions. The cells were incubated in 96-well plates (100 μL/well), in complete DMEM or RPMI 1640 medium (see above), at 37 °C and 5% CO2 atmosphere for 24 h to allow for cell attachment to the plate at the following concentrations: 30,000 cells/mL (U87MG, A172, J774, and HEK-293 cells) or 15,000 cells/mL (HeLa cells). Then, every compound was added (10 μL/well) to a final concentration of 10 μM. Untreated cells were used as negative controls. The antiproliferative activity of the compounds was measured 72 h after drug exposure using the MTT assay. The IC50 value (the drug concentration required to inhibit 50% of the cell growth in respect the untreated control) was determined for those compounds showing antiproliferative effects in the initial screening at 10 μM. For this purpose, the compounds were used at different concentrations ranging from 10^−10 to […]. Measurements were performed in triplicate and each experiment was repeated three times. The IC50 values were determined using Origin software (OriginLab, Washington, DC, USA).

In data set [2] the test system is A172 (human glioblastoma). Briefly: MTT antiproliferative assay, A-172. The format is cell-based. The following applies: 72 h after drug treatment, threshold 10 μM. The procedure: as §1, §2, §3
(Tetrazolium assays rely on reduction of a dye to a coloured formazan, in cell work by metabolically active cells.)

Data set [3] deals with U87 MG (human glioblastoma). Briefly: MTT antiproliferative assay, U-87 MG. It counts as cell-based. The conditions noted are these: 72 h after drug treatment, threshold 10 μM. The method, then: as §1, §2, §3
Data set [4] concerns nontumorigenic cell line HEK-293 (human embryonic kidney cells). Briefly: MTT antiproliferative assay, HEK-293. The following applies: HEK293, 72 h after drug treatment, threshold 10 μM. The format is cell-based. The procedure: as §1, §2, §3
Data set [5] has as its system murine macrophage cell line J774. As to the kind of experiment: MTT antiproliferative assay, J774. The format is cell-based. The following applies: Mus musculus, 72 h after drug treatment, threshold 10 μM, read-out: IC50 J-774. The procedure:
as §1, §3

Another data set has as its system HeLa cells. Briefly: Cell cycle analysis (PI staining, flow cytometry). The format is cell-based, human. The conditions noted are these: 2 μM, 24-72 h. The procedure:
To study the effects of the compounds on the cell cycle, cells were incubated for different times with the compounds and, thereafter, their DNA was stained using propidium iodide (PI) to allow for quantification by flow cytometry. […] The brominated ethyl BZTs (5b and 5f) were faster to show the subG0/G1 decrease, at 24 h, followed by an apparent stabilization of the G0/G1 population at 48 h, which abruptly fell at the 72 h time point.
HeLa cells (8 × 10^4 cells/mL) were seeded in 6-well plates (2 mL/well) and incubated in complete DMEM medium at 37 °C and 5% CO2 atmosphere for 24 h. Then, the medium was replaced with fresh complete DMEM in the presence or absence of the selected compounds (3ea, 5b, 5f, and frentizole 6e) at 2 μM. Untreated cells were used as negative controls. Cells were harvested 24, 48, or 72 h following treatment and fixed in ice-cold ethanol/PBS (7:3) overnight. The cells were then washed twice with PBS, suspended in PBS and incubated overnight in darkness with 0.2 mg/mL RNase A (Sigma-Aldrich, St. Louis, MO, USA), 50 μg/mL propidium iodide (Sigma-Aldrich, St. Louis, MO, USA), and Triton 10× at room temperature. A BD Accuri™ C6 Plus Flow Cytometer (BD Bioscience, Madrid, Spain) was used to analyze samples, and BD Accuri™ C6 Software (version 1.0.264.21) was used for data analysis.
Background: In flow cytometry, cells or beads pass a laser one at a time.

The test system of data set [6] is microtubule network of HeLa cells. As to the kind of experiment: Immunofluorescence confocal microscopy of cellular microtubules. The format is cell-based, human. The following applies: 2 μM, 24 h. The method, then: Therefore, we studied the effect of the compounds after 24 h of treatment on the microtubule network of HeLa cells by immunofluorescence confocal microscopy (Figure 5) through α-tubulin and nuclei labeling. […] These morphological effects are typical of tubulin inhibitors. Again, the effects are more pronounced for 5b than for 3ea, frentizole, and 5f.
HeLa cells (8 × 10^4 cells/mL) were seeded on 0.01% poly-L-lysine precoated square glass coverslips (22 mm^2), deposited on 6-well plates (1 coverslip/well), and incubated in complete DMEM medium at 37 °C and 5% CO2 atmosphere. After 24 h the culture medium was replaced by fresh complete DMEM, and the cells were incubated in the presence of 2 μM or absence of the selected compounds (3ea, 5b, 5f, and frentizole 6e) for 24 h. Untreated cells were used as negative controls. Then the medium was removed, and the coverslips were washed three times with PBS, fixed in 4% formaldehyde in PBS for 10 min, permeabilized with 0.5% Triton X-100 (Sigma-Aldrich, St. Louis, MO, USA) in PBS for 90 s at 4 °C, blocked with 10% BSA in PBS for 30 min and washed four times with PBS. Then, the coverslips were incubated for 1 h with anti-α-tubulin mouse monoclonal antibody (Sigma-Aldrich, St. Louis, MO, USA, 1:200 in PBS containing 3% BSA). After four washes with PBS, the coverslips were incubated with fluorescent secondary antibody Alexa Fluor 488 goat anti-mouse IgG (Molecular Probes, Invitrogen, Eugenen, OR, USA, 1:400 in PBS containing 1% BSA) for 1.5 h in darkness. After four washes with PBS, a droplet of ProLong™ Gold Antifade Mountant containing DAPI (ThermoFisher, Waltham, MA, USA) was added for cell nuclei staining. The samples were analyzed via confocal microscopy using a LEICA SP5 microscope DMI-6000V model coupled to a LEICA LAS AF 4.0 software computer.

Data set [7] relates to U87 MG (human glioblastoma). Also on record: method as in PMID 37376146. The following applies: cited from earlier work.
Another data set in a line: Solubility (remark). It counts as physicochemical.
Details of data set [8]: method as in PMID 24858403. The following applies: cited from earlier work.
The subject of data set [9] is Ras-related protein Rab-9A. Also on record: method as in SuperPred [40]. The following applies: Table S2, CHEMBL1293294; ref SuperPred [40]; cited from earlier work.
The subject of data set [10] is Survival motor neuron protein. Also on record: method as in SuperPred [40]. The conditions noted are these: Table S2, CHEMBL1293232; ref SuperPred [40]; cited from earlier work.
Setting [11] is: 72 h after drug treatment, threshold 10 μM.

The text below walks through data of publication PMC10744269, “Frentizole, a Nontoxic Immunosuppressive Drug, and Its Analogs Display Antitumor Activity via Tubulin Inhibition” (International Journal of Molecular Sciences, 2023).

The IC50 is the concentration that inhibits the measured activity by half. In the case of `COc1ccc2nc(N(C)C(=O)c3ccccc3)sc2c1` [Compound 3ea, N-(6-methoxybenzo[d]thiazol-2-yl)-N-methylbenzamide], the “activity against HeLa cells (in words)” value in [1] is on record as “significant activity”. Moreover, the IC50 was 0.74 µM in data set [1] (setting [11]); more than 10 µM in data set [2]; more than 10 µM in data set [3]; more than 10 µM in data set [4]; more than 10 µM in data set [5]. Further, the “effect on the cell cycle populations (in words)” value with HeLa cells is on record as “weakest effect on the cell populations”. Also, in [6], the “effect on the microtubule network (in words)” value was “severe microtubule network disruption”.
As for `Cn1nnc2c(C(N)=O)ncn2c1=O` [temozolomide], the “in vitro IC50 against U87MG” value in data set [7] was “millimolar range”.
For `CCNC(=O)Nc1nc2c(Br)cc(C)cc2s1` [Compound 5b, 1-(4-Bromo-6-methylbenzo[d]thiazol-2-yl)-3-ethylurea], in data set [1], the “activity against HeLa cells (in words)” value is “significant activity”. Moreover, the IC50 in [1] (setting [11]) is 0.49 µM; in data set [2], more than 10 µM; in data set [3], more than 10 µM; in data set [4] it was more than 10 µM; in data set [5], more than 10 µM. In the data set on HeLa cells, the “effect on the cell cycle populations (in words)” value was “arrest at G2/M in the 24 to 48 h period”. Moreover, the “effect on the microtubule network (in words)” value in data set [6] is “severe microtubule network disruption”.
As to `CCNC(=O)Nc1nc2c(Br)c(C)c(C)cc2s1` [Compound 5d, 1-(4-Bromo-5,6-dimethylbenzo[d]thiazol-2-yl)-3-ethylurea], in data set [1], the “activity against HeLa cells (in words)” value is “significant activity”. In addition, the IC50 in [1] (setting [11]) is 1.24 µM; in data set [2], more than 10 µM; in data set [3], more than 10 µM; in [4], more than 10 µM; in data set [5], more than 10 µM. In “Solubility (remark)”, the “solubility (in words)” value is given as “very limited solubility”.
For the compound `CCNC(=O)Nc1nc2c(Br)cc(OC)cc2s1` [Compound 5f, 1-(4-Bromo-6-methoxybenzo[d]thiazol-2-yl)-3-ethylurea], the “activity against HeLa cells (in words)” value in data set [1] is “significant activity”. Moreover, the IC50 in [1] (setting [11]) was 0.7 µM; in data set [2], more than 10 µM; in [3], more than 10 µM; in [4] it was more than 10 µM; in [5], more than 10 µM. The “effect on the cell cycle populations (in words)” value with HeLa cells was “increase in the subG0/G1 population progressively occurs at the 48 h to 72 h timepoints”. In addition, the “effect on the microtubule network (in words)” value in data set [6] is “severe microtubule network disruption”.
Take `COc1ccc2nc(NC(=O)Nc3ccccc3)sc2c1` [Compound 6e, 1-(6-Methoxybenzo[d]thiazol-2-yl)-3-phenylurea, reference compound]: in [1], the “activity against HeLa cells (in words)” value was “significant activity”. Moreover, the “IC50 HeLa” value in data set [1] (setting [11]) is listed as “low micromolar range”. Further, the IC50 in data set [1] (setting [11]) is 1 µM; in [2], more than 10 µM; in data set [3], 7.33 µM; in data set [4], 6.86 µM; in [5], more than 10 µM. Moreover, the results for the “effect on the cell cycle populations (in words)” value in the data set with HeLa cells (listed as Frentizole (6e)) and in the data set with HeLa cells (listed as frentizole) were “progressive accumulation of cells in the G2/M population” and “no increase in the subG0/G1 population was observed”, respectively. For the same compound, the “effect on the microtubule network (in words)” value in data set [6] is on record as “severe microtubule network disruption”. For the same compound, the “blood–brain barrier crossing” value in data set [8] was “able to cross the blood–brain barrier”. Besides, the “Min Activity (Assay type Potency)” value in [9] is 707.9 nm; in data set [10], 891.3 nm.
